Assay results published in patent publication US20250057963A1, “DISCOVERY OF PIPERLONGUMINE AS A NOVEL E3 LIGASE LIGAND” (University of Florida Research Foundation, Incorporated, priority 2021, published 2025).
Entries after “also recorded” stand apart in the source; their conditions may differ.

What was measured:
CDK9 = CDK9 (Homo sapiens, UniProt P50750); experiment: CDK9 degradation and c-Myc/MCL-1 downregulation in LNCaP cells (immunoblot); format: cell-based; parameters: endogenous in cells; host or cells: MOLT4, 293T, K562, NCI-H1299, LNCaP
CDK9, sequence (P50750 whole entry): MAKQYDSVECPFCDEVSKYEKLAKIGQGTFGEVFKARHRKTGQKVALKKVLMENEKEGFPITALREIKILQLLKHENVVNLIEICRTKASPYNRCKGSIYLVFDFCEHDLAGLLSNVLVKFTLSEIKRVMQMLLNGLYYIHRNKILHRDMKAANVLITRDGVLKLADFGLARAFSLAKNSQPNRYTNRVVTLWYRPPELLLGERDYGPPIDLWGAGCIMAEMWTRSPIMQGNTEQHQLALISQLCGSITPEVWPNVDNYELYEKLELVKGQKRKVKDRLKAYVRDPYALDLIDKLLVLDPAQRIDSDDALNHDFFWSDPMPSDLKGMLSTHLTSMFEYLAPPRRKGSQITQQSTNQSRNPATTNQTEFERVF
Procedure: Human T-ALL MOLT4 (Cat. No. CRL-1582), K562 (Cat. No. CCL-243), NCI-H1299 (Cat. No. CRL-5803), NCI-H2228 (Cat. No. CRL-5935), LNCaP (Cat. No. CRL-1740), 22RV1 (Cat. No. CRL-2505), PC3 (Cat. No. CRL-1435), DU145 (Cat. No. HTB-81), and epithelial kidney HEK 293T (293T, Cat. No. ACS-4500) cell lines were recently purchased from American Type Culture Collection (ATCC, Manassas, VA, USA). MOLT4, K562, NCI—H-1299, NCI-H2228, LNCap, and 22RV 1 cell lines were cultured in RPMI 1640 medium (Cat No. 22400-089, Thermo Fisher Scientific, Waltham, MA, USA) supplemented with 10% (v/v) heat-inactivated fetal bovine serum (FBS, Cat. No. S11150H, Atlanta Biologicals, Flowery Branch, GA, USA), 100 U/mL penicillin and 100 pig/mL streptomycin (Pen-Strep, Cat. No. 15140122, Thermo Fisher Scientific). PC3 cells were cultured in complete F—12K medium (Kaighn's modification of Ham's F-12 medium, Cat. No. 30-2004, ATCC) supplemented with 10% (v/v) heat-inactivated FBS, 100 U/mL penicillin, and 100 μg/mL streptomycin. DU145 cells were cultured in complete Eagle's Minimum Essential Medium (EMEM, Cat. No. 30-2003, ATCC) supplemented with 10% (v/v) heat-inactivated FBS, 100 U/mL penicillin, and 100 μg/mL streptomycin. […]
Immunoblot data were quantified using the ImageJ (v 1.53a) software from NIH. […]

purified KEAP1 protein = molecular target: T1, purified KEAP1 protein (Homo sapiens, UniProt Q14145); experiment: Gel-based competitive ABPP assay with IA-alkyne; format: binding; conditions: purified His-KEAP1, serially diluted 955
T1 construct: made in house; host or cells: bacterial cells grown in LB and induced with IPTG
T1 sequence (Q14145 whole entry): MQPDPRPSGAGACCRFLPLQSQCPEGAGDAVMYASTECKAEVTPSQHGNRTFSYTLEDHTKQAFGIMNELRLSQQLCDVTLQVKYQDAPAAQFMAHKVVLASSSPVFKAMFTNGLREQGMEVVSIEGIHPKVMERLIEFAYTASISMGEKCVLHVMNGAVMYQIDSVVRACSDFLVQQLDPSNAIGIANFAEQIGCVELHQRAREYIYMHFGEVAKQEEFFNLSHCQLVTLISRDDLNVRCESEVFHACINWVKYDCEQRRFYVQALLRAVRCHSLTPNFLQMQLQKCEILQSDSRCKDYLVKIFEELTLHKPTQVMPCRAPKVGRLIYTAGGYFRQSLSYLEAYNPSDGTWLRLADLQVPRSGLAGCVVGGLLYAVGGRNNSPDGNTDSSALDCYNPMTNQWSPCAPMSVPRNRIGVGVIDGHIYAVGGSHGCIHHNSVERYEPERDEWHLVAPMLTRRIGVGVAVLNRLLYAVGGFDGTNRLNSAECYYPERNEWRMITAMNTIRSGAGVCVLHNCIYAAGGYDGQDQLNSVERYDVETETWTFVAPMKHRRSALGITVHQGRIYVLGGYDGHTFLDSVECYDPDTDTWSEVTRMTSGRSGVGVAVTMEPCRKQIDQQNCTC
Procedure: The plasmid pet28a-His6-Keap1 for expressing His-KEAP1 was purchased from Addgene (a gift from Yimon Aye, plasmid #62454). To purify His-KEAP1, the plasmid transformed cells were grown in LB broth at 37° C. with shaking until the optical density at 600 nm reached 0.6-0.7. Isopropyl-β-D-thiogalactopyranoside (1 mM) was added to induce protein expression overnight at 16° C. Cell pellet was resuspended in lysis buffer [50 mM Tris-Hcl (pH 7.5), 150 mM NaCl, 1 mM EDTA, 0.05% NP-40, […], lx protease inhibitor, and 1 mM DTT] and lysed using sonication. The lysate was cleared by centrifugation at 20,000×g for 30 min at 4° C. and purified by using GE Healthcare His GraviTrap™ Kit (Cat. No. 45-002-016, Fisher Scientific). After elution, the proteins were concentrated by using Pierce Protein Concentrators PES, 30K MWCO (Cat. No. 88502, ThermoFisher) and then dialyzed into the buffer containing 50 mM HEPES, 150 mM NaCl, and 0.1 mM EDTA (pH 7.5).
A gel-based ABPP assay was performed as previously described with some modifications (Ward et al., 2019). Briefly, Purified His-KEAP1 ([…]) was diluted into 50 μL of PBS and 0.5 μL of either DMSO (vehicle) or indicated compound was added to incubate at 25° C. for 1 h, then the samples were treated with 20 µM IA-Alkyne (Cat. No. 7015, Tocris, prepared in DMSO) at 25° C. for 1 h. […]

c-Myc and MCl-1 = experiment: c-Myc and MCL-1 expression in MOLT4 cells (qPCR and immunoblot); format: cell-based, Human
Procedure: Cells were collected and lysed in RIPA lysis buffer (Cat. #BP-115DG, Boston Bio Products, Ashland, MA, USA) supplemented with protease and phosphatase inhibitor cocktails (Cat. #PPC1010, Sigma-Aldrich, St. Louis, MO, USA). Protein samples were made and immunoblotting was performed as described previously (Khan et al., 2019; Lv et al., 2021). Antibodies purchased from Cell Signaling Technologies (CST) and the dilutions are as follows: Biotin (Cat. No. 5571S, 1:1000), PARP (Cat. No. 9542S, 1:1000), c-Myc (Cat. No. 5605S, 1:1000), MCL1 (Cat. No. 5453S, 1:1000), and ALK (Cat. No. 3791S, 1:1000). KEAP1 antibody was purchased from Proteintech (Cat. No. 10503-2-AP, 1:1000). CDK9 antibody was purchased from Santa Cruz (Cat. No. sc-13130, 1:500). V5-tag antibody was purchased from Bethyl (Cat. No. A190-120P, 1:1000). j-actin antibody was purchased from MP Biomedicals (Cat. No. 8691001, 1:20 000).
Total RNA was extracted as mentioned above. Reverse transcription and quantitative PCR (qPCR) was performed as described in our previous study (Lv et al., 2021). Primers used for measuring gene transcriptional level: GAPDH primers (forward 5′-[…]-3′ and reverse 5′-[…]-3′) were described previously (Zhang et al., 2018b). MCL1 primers are forward 5′-[…]-3′ and reverse 5′-[…]-3′; MYC primers are forward 5′-[…]-3′ and reverse 5′-[…]-3′.

- competition with IA-alkyne for covalent binding to KEAP1 (purified KEAP1 protein): concentration-dependent manner
SMILES: COc1cc(/C=C/C(=O)N2CCC=CC2=O)cc(OC)c1OCCN1CCN(C(=O)CN2CCC(C(=O)Nc3ncc(SCc4ncc(C(C)(C)C)o4)s3)CC2)CC1 [compound 955, (E)-N-(5-(((5-(tert-butyl)oxazol-2-yl)methyl)thio)thiazol-2-yl)-1-(2-(4-(2-(2,6-dimethoxy-4-(3-oxo-3-(6-oxo-3,6-dihydropyridin-1(2H)-yl)prop-1-en-1-yl)phenoxy)ethyl)piperazin-1-yl)-2-oxoethyl)piperidine-4-carboxamide]
- CDK9 degradation and downregulation of c-Myc and MCL-1 (CDK9): dose-dependent manner; also recorded: potently degraded CDK9 and downregulated c-Myc and MCL-1
- effectiveness relative to SNS-032 in downregulating c-Myc and MCl-1 (mRNA and protein) (c-Myc and MCl-1): ~10 times
- potency relative to SNS-032 in downregulation of c-Myc and MCl-1 (mRNA and protein) (c-Myc and MCl-1): about 10 fold
